This note sets out measurements from patent US10183944B2 (Asana Biosciences, LLC, priority 2011, dated 2019).

The term IC50 denotes the concentration that inhibits the measured activity by half.

Each structure is given as a SMILES string.

Assay [1] addresses Syk (356-635 amino acids) catalytic domain (Homo sapiens (Human), UniProt P43405). Put plainly: Inhibition of enzymatic Syk kinase activity (radiometric). The assay is classed as biochemical. The note with it: read-out: IC50 Syk. Summed up:
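Human Syk (356-635) kinase domain (0.035–7.5 ng/reaction) preincubated with compound 30 minutes at room temperature, then reacted with pG4T substrate, 100 μM ATP (stock) and γ-32P-ATP for 10 minutes at 30° C. Reaction stopped with HCl/ATP, spotted on P81 paper, washed and counted by scintillation. Percent inhibition versus no-compound counts.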

Assay [2] addresses JAK2 (Homo sapiens (Human), UniProt O60674). The experiment in a line: Inhibition of enzymatic JAK2 kinase activity (TR-FRET). The assay is classed as biochemical. Conditions: read-out: IC50 JAK. An excerpt: The objective of this assay was to screen compounds in a Time-resolved fluorescence resonance energy transfer (TR-FRET) Enzymatic assay method for their potential to inhibit JAK2 (Janus kinase) activity.
TR-FRET assays are homogeneous proximity assays where Eu-labeled antiphosphotyrosine antibody binds to the phosphorylated substrates labeled with Ulight fluorescence acceptor. Eu can transfer energy to Ulight accepter in the complex and the interaction of two dye-labeled binding partners is detected by the energy transfer between a donor and an acceptor dye, and the subsequent light emission by the acceptor dye. The intensity of the light emission is proportional to the level of Ulight peptide phosphorylation.
Two μL of 10% DMSO in blank, substrate control and positive control wells and 2 μL of test compound in test wells was added. Thirteen μL of assay buffer in blank and substrate control wells and 13 μL of Enzyme buffer mix in positive and test wells was added. The reaction mixture was incubated for 30 minutes at RT on a plate shaker. Ultra Light-pGT substrate (5 μL) [poly Glu-Tyr (4:1) labeled with U Light TM dye, a tyrosine kinase substrate] and ATP mix was added to all wells. The reaction plate was incubated for 60 minutes at RT on a plate shaker. The reaction was stopped by adding 40 mM EDTA (10 μL) in buffer. Ten μL of antibody was added to all the wells. The plate was read in a Wallac® 1420 Multilabel Counter Victor 3 instrument (Ex: 340 nm Em: 615 & 665 nm) The following calculations were made:
F@ 665 Value-Buffer blank
F@ 615 Value-Buffer blank
Ratio of F@665/F@615-Substrate Blank
% Activity=(Test Sample/Positive control)*100%
Inhibition=(100−% Activity)
Background: Time-resolved FRET reads energy transfer from a long-lived donor to a nearby acceptor.

Chain of JAK2 (O60674 808-1132): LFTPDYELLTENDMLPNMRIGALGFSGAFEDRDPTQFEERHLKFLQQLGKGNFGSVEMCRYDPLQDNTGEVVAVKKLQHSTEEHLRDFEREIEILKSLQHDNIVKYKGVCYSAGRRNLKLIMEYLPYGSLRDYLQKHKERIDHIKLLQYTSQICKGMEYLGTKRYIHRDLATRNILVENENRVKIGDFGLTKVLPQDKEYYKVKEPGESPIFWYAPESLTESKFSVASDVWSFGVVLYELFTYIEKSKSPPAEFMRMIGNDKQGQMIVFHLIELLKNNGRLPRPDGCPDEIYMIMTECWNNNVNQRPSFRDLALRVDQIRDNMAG

For `N#CCC1CCN(c2nc(Nc3ccc(N4CCC5(CC4)CC5C(=O)O)nc3)c3c(=O)[nH]ncc3n2)CC1` (stereo not drawn) [Example 148, 6-(5-((2-(4-(cyanomethyl)piperidin-1-yl)-5-oxo-5,6-dihydropyrimido[4,5-d]pyridazin-4-yl)amino)pyridin-2-yl)-6-azaspiro[2.5]octane-1-carboxylic acid], the IC50 in assay [1] and in assay [2] was less than 0.05 µM each time.

In the case of `O=c1[nH]ncc2nc(N3CCCCCC3)nc(Nc3ccc(OCCC4CCNCC4)cc3)c12` [Example 168, 2-(azepan-1-yl)-4-((4-(2-(piperidin-4-yl)ethoxy)phenyl)amino)pyrimido[4,5-d]pyridazin-5(6H)-one], the IC50 in assay [1] and in assay [2] was less than 0.05 µM throughout.

Take `CC(C)(C(=O)O)C1CCN(c2ccc(Nc3nc(N4CCCCCC4)nc4cn[nH]c(=O)c34)cc2)CC1` [Example 142, 2-(1-(4-((2-(azepan-1-yl)-5-oxo-5,6-dihydropyrimido[4,5-d]pyridazin-4-yl)amino)phenyl)piperidin-4-yl)-2-methylpropanoic acid]: the values for the IC50 in assay [1] and in assay [2] were less than 0.05 µM and less than 0.01 µM, respectively.

Regarding `O=c1[nH]ncc2nc(N3CCCCCC3)nc(Nc3ccc(N4CCC(CCO)CC4)cc3)c12` [Example 195, 2-(azepan-1-yl)-4-((4-(4-(2-hydroxyethyl)piperidin-1-yl)phenyl)amino) pyrimido[4,5-d]pyridazin-5(6H)-one], the IC50 in assay [1] and in assay [2] was less than 0.01 µM throughout.

In the case of `O=C(O)CN1CCN(c2ccc(Nc3nc(N4CCCCCC4)nc4cn[nH]c(=O)c34)cn2)CC1` [Example 144, 2-(4-(5-((2-(azepan-1-yl)-5-oxo-5,6-dihydropyrimido[4,5-d]pyridazin-4-yl)amino)pyridin-2-yl)piperazin-1-yl)acetic acid], the IC50 in assay [1] and in assay [2] was less than 0.1 µM in each case.

On to `N#CCC1CCN(c2nc(Nc3ccc(-c4nn[nH]n4)cc3)c3c(=O)[nH]ncc3n2)CC1` [Example 245, 2-(1-(4-((4-(2H-tetrazol-5-yl)phenyl)amino)-5-oxo-5,6-dihydropyrimido[4,5-d]pyridazin-2-yl)piperidin-4-yl)acetonitrile], for which the 50% inhibitory concentration (IC50) in assay [1] and in assay [2] was less than 0.05 µM throughout.

Turning to `CCN1CCN(C(=O)COc2ccc(Nc3nc(N4CCC(CC#N)CC4)nc4cn[nH]c(=O)c34)cc2)CC1` [Example 270, 2-(1-(4-((4-(2-(4-ethylpiperazin-1-yl)-2-oxoethoxy)phenyl)amino)-5-oxo-5,6-dihydropyrimido[4,5-d]pyridazin-2-yl)piperidin-4-yl)acetonitrile], the IC50 in assay [1] and in assay [2] was less than 0.05 µM in each case.

For the compound `N#CCC1CCN(c2ccc(Nc3nc(N4CCCCCC4)nc4cn[nH]c(=O)c34)cc2)CC1` [Example 80, 2-(1-(4-((2-(azepan-1-yl)-5-oxo-5,6-dihydropyrimido[4,5-d]pyridazin-4-yl)amino)phenyl)piperidin-4-yl)acetonitrile], the IC50 was less than 0.05 µM in assay [1] and less than 0.01 µM in assay [2].

As to `O=c1[nH]ncc2nc(N3CCCCCC3)nc(Nc3ccc(-c4nn[nH]n4)cc3)c12` [Example 227, 4-((4-(2H-tetrazol-5-yl)phenyl)amino)-2-(azepan-1-yl)pyrimido[4,5-d]pyridazin-5(6H)-one], the IC50 in assay [1] was less than 0.05 µM; in assay [2], less than 0.01 µM.

In the case of `O=C(O)C[C@H]1CC[C@H](c2ccc(Nc3nc(N4CCCCCC4)nc4cn[nH]c(=O)c34)cc2)CC1` [Example 129, 2-((1R,4R)-4-(4-((2-(azepan-1-yl)-5-oxo-5,6-dihydropyrimido[4,5-d]pyridazin-4-yl)amino)phenyl)cyclohexyl)acetic acid], the IC50 in assay [1] and in assay [2] was less than 0.01 µM each time.

As to `O=C(O)CC1CCN(CCCOc2ccc(Nc3nc(N4CCCCCC4)nc4cn[nH]c(=O)c34)cc2)CC1` [Example 126, 2-(1-(3-(4-((2-(azepan-1-yl)-5-oxo-5,6-dihydropyrimido[4,5-d]pyridazin-4-yl)amino)phenoxy)propyl)piperidin-4-yl) acetic acid], the IC50 in assay [1] was less than 0.1 µM; in assay [2], less than 0.05 µM.

For `O=c1[nH]ncc2nc(N3CCCCCC3)nc(Nc3ccc(OCCCN4CCNCC4)cc3)c12` [Example 136, 2-(azepan-1-yl)-4-((4-(3-(piperazin-1-yl)propoxy)phenyl)amino)pyrimido[4,5-d]pyridazin-5(6H)-one], the IC50 in assay [1] and in assay [2] was less than 0.05 µM each time.

For the compound `CC(C)N(CCOc1ccc(Nc2nc(N3CCCCCC3)nc3cn[nH]c(=O)c23)cc1)C(C)C` [Example 188, 2-(azepan-1-yl)-4-((4-(2-(diisopropylamino)ethoxy)phenyl)amino) pyrimido[4,5-d]pyridazin-5(6H)-one], the IC50 in assay [1] and in assay [2] was less than 0.05 µM each time.

Regarding `O=c1[nH]ncc2nc(N3CCCCCC3)nc(Nc3ccc(N4CCC(F)CC4)cc3)c12` [Example 289, 2-(azepan-1-yl)-4-((4-(4-fluoropiperidin-1-yl)phenyl)amino)pyrimido[4,5-d]pyridazin-5(6H)-one], the half-inhibitory concentration (IC50) was less than 0.05 µM in assay [1] and less than 0.01 µM in assay [2].

Take `N#CCC1CCN(c2nc(Nc3ccc(OCCO)cc3)c3c(=O)[nH]ncc3n2)CC1` [Example 293, 2-(1-(4-((4-(2-hydroxyethoxy)phenyl)amino)-5-oxo-5,6-dihydropyrimido[4,5-d]pyridazin-2-yl)piperidin-4-yl) acetonitrile]: the values for the IC50 in assay [1] and in assay [2] were less than 0.1 µM and less than 0.05 µM, respectively.

As for `CC(C)(O)C1CCN(c2ccc(Nc3nc(N4CCCCCC4)nc4cn[nH]c(=O)c34)cc2)CC1` [Example 139, 2-(azepan-1-yl)-4-((4-(4-(2-hydroxypropan-2-yl)piperidin-1-yl)phenyl)amino)pyrimido[4,5-d]pyridazin-5(6H)-one], the half-maximal inhibitory concentration (IC50) in assay [1] was less than 0.05 µM; in assay [2], less than 0.01 µM.

With `NC(=O)CC1CCN(c2ccc(Nc3nc(N4CCCCCC4)nc4cn[nH]c(=O)c34)cc2)CC1` [Example 105, 2-(1-(4-((2-(azepan-1-yl)-5-oxo-5,6-dihydropyrimido[4,5-d]pyridazin-4-yl)amino)phenyl)piperidin-4-yl)acetamide], the IC50 in assay [1] and in assay [2] was less than 0.01 µM in each case.

Turning to `N#CCC1CCN(c2nc(Nc3ccc(N4CCN(CCC(=O)O)CC4)cc3)c3c(=O)[nH]ncc3n2)CC1` [Example 220, 3-(4-(4-((2-(4-(cyanomethyl)piperidin-1-yl)-5-oxo-5,6-dihydropyrimido[4,5-d]pyridazin-4-yl)amino)phenyl)piperazin-1-yl)propanoic acid], the IC50 in assay [1] and in assay [2] was less than 0.01 µM throughout.

Regarding `O=c1[nH]ncc2nc(N3CCCCCC3)nc(Nc3ccc(-c4nnn(CCO)n4)cc3)c12` [Example 222, 2-(azepan-1-yl)-4-((4-(2-(2-hydroxyethyl)-2H-tetrazol-5-yl)phenyl)amino) pyrimido[4,5-d]pyridazin-5(6H)-one], the values for the IC50 in assay [1] and in assay [2] were less than 0.1 µM and less than 0.05 µM, respectively.

Regarding `CC(C)(O)C(=O)N1CCN(c2ccc(Nc3nc(N4CCCCCC4)nc4cn[nH]c(=O)c34)cn2)CC1` [Example 238, 2-(azepan-1-yl)-4-((6-(4-(2-hydroxy-2-methylpropanoyl)piperazin-1-yl)pyridin-3-yl)amino)pyrimido[4,5-d]pyridazin-5(6H)-one], the IC50 in assay [1] was less than 0.05 µM; in assay [2], less than 0.01 µM.

Regarding `O=c1[nH]ncc2nc(N3CCCCCC3)nc(Nc3ccc(N4CCC(O)CC4)nc3)c12` [Example 217, 2-(azepan-1-yl)-4-((6-(4-hydroxypiperidin-1-yl)pyridin-3-yl)amino)pyrimido[4,5-d]pyridazin-5(6H)-one], the IC50 in assay [1] and in assay [2] was less than 0.05 µM each time.

As for `O=c1[nH]ncc2nc(N3CCCCCC3)nc(Nc3ccc(N4CCN(CCCO)CC4)cc3)c12` [Example 260, 2-(azepan-1-yl)-4-((4-(4-(3-hydroxypropyl)piperazin-1-yl)phenyl)amino)pyrimido[4,5-d]pyridazin-5(6H)-one], the IC50 in assay [1] and in assay [2] was less than 0.05 µM throughout.

`NC(=O)CC1CCN(c2ccc(Nc3nc(-c4ccccc4)nc4cn[nH]c(=O)c34)cn2)CC1` [Example 102, 2-(1-(5-((5-oxo-2-phenyl-5,6-dihydropyrimido[4,5-d]pyridazin-4-yl)amino)pyridin-2-yl)piperidin-4-yl) acetamide]: the IC50 in assay [1] is less than 0.05 µM; in assay [2], greater than 0.1 µM.

Take `CC(C)(O)C(=O)N1CCN(c2ccc(Nc3nc(N4CCC(CC#N)CC4)nc4cn[nH]c(=O)c34)cc2)CC1` [Example 223, 2-(1-(4-((4-(4-(2-hydroxy-2-methylpropanoyl)piperazin-1-yl)phenyl)amino)-5-oxo-5,6-dihydropyrimido[4,5-d]pyridazin-2-yl)piperidin-4-yl) acetonitrile]: the IC50 in assay [1] and in assay [2] was less than 0.01 µM in each case.
